Values quoted from earlier work in patent US9907807B2, “Topical pharmaceutical compositions” (Almirall, S.A., priority 2010, dated 2018).

solubility in ethyl alcohol (ethyl alcohol): moderately soluble
solubility in octanol (octanol): slightly soluble
solubility in water (water): insoluble
SMILES: C[C@@H]1C[C@H]2[C@@H]3CCC4=CC(=O)C=C[C@]4(C)[C@@]3(Cl)[C@@H](O)C[C@]2(C)[C@@]1(OC(=O)c1ccco1)C(=O)CCl [Mometasone furoate, 9α,21-dichloro-11β,17-dihydroxy-16α-methylpregna-1,4-diene-3,20-dione 17-(2-furoate)]
